Reference: patent publication US20170210751A1, “PRMT5 INHIBITORS AND USES THEREOF” (Epizyme, Inc., priority 2014, published 2017)

Target: T1, PRMT5/MEP50 (Homo sapiens, UniProt O14744)
T1 construct: Flag-PRMT5; made in house; host or cells: Spodoptera frugiperda (SF9) insect cells, baculovirus (pDEST8)
Experiment: PRMT5 Biochemical Assay (PRMT5/MEP50 enzyme assay on peptide substrate, 3H-SAM Flashplate)
Settings: PRMT5/MEP50 4 nM, 3H-SAM 75 nM, peptide 40 nM, 30 min preincubation at 25 degrees Celsius
In short: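 FLAG-PRMT5/His-MEP50 from Sf9 cells (4 nM) preincubated 30 min at 25 °C with compounds, then reacted with 75 nM 3H-SAM and 40 nM biotinylated histone H4 1-15 peptide in Bicine pH 7.6, 1% DMSO. Stopped with 600 uM cold SAM; streptavidin Flashplate capture, scintillation counts; % inhibition fitted to 3- or 4-parameter curve.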

T1 sequence (O14744 with tags, fused parts or gaps): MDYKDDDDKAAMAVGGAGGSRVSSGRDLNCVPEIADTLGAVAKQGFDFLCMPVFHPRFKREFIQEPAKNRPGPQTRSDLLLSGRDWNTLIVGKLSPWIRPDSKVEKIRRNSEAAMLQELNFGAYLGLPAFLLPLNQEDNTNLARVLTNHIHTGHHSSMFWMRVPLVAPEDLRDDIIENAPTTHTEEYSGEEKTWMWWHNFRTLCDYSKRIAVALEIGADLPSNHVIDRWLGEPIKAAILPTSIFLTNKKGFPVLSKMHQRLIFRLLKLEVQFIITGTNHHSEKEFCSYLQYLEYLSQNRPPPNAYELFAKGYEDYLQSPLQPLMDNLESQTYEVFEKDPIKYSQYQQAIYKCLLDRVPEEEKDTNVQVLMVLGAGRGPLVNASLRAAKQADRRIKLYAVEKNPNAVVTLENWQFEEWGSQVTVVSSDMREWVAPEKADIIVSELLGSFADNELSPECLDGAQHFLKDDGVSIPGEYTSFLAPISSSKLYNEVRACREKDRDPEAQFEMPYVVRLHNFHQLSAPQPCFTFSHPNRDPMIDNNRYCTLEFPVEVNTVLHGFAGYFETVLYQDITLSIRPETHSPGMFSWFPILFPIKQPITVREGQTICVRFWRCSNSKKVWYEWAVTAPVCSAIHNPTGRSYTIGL
T1 sequence (Q9BQA1 with tags, fused parts or gaps partner limits assumed): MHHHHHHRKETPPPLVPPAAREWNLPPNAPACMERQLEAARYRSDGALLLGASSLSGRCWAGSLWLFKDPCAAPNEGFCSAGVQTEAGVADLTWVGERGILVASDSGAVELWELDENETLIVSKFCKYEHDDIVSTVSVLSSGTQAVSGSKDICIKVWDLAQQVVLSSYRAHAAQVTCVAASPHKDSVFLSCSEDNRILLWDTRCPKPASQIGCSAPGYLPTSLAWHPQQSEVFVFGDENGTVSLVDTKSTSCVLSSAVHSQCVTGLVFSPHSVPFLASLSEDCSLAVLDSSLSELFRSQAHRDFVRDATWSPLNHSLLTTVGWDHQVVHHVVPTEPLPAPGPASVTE

SMILES | IC50 [µM]
O=C(COc1cccc2cccnc12)NCC(O)CN1CCc2ccsc2C1 (stereo not drawn) [Compound 1-5, N-(2-hydroxy-3-{4H,5H,6H,7H-thieno[2,3-c]pyridin-6-yl}propyl)-2-(quinolin-8-yloxy)acetamide] | < 0.1
CC(=O)N1CC(Nc2cc(C(=O)NC[C@H](O)CN3CCc4c(cnn4C)C3)ncn2)C1 [Compound 3-29] | > 10
CC(=O)N1CCC(Nc2cc(C(=O)NC[C@H](O)CN3CCc4ncn(C)c4C3)ncn2)CC1 [Compound 3-30, (S)-6-((1-acetylpiperidin-4-yl)amino)-N-(2-hydroxy-3-(3-methyl-6,7-dihydro-3H-imidazo[4,5-c]pyridin-5(4H)-yl)propyl)pyrimidine-4-carboxamide] | > 10
